Experimental data from patent publication US20240247080A1, “GLP1/GIP/NPY2 RECEPTOR TRIPLE AGONISTS” (Boehringer Ingelheim International GmbH, priority 2022, published 2024).
Where two headings read alike, the source gives them in different places. Starred links: 1 amine or outer side, 2 acyl side, 3 side chain; linkers in the order of their positions; H or OH if unused. Positions of bridges follow the written chain, without caps; N, C: chain ends. Non-standard residues stand in square brackets, D forms with d. Groups on a side chain read outwards from the residue. Chains are numbered I, II in the order given. No end group written: not given here. *: point of attachment. C20 diacid = O=C(O)CCCCCCCCCCCCCCCCCCC(=O)*; C18 diacid = O=C(O)CCCCCCCCCCCCCCCCC(=O)*; γGlu = O=C(O)[C@H](CCC(=O)[*:2])N[*:1]; εLys = N[C@@H](CCCCN[*:1])C(=O)[*:2]; AEEA = NCCOCCOCC(=O)O; Aib = CC(C)(N)C(=O)O

Key:
Format in all cases: cell-based
Conditions in all cases: CreLuc reporter gene assay
hNPY2R = target: T1, hNPY2R (Homo sapiens, UniProt P49146); experiment: hNPY2R CreLuc reporter gene assay in 0.5% and 100% plasma
T1 construct: expressed in transfected cells; host or cells: HEK-293 cells carrying a CRE-luciferase reporter gene
T1 sequence (P49146 1-381): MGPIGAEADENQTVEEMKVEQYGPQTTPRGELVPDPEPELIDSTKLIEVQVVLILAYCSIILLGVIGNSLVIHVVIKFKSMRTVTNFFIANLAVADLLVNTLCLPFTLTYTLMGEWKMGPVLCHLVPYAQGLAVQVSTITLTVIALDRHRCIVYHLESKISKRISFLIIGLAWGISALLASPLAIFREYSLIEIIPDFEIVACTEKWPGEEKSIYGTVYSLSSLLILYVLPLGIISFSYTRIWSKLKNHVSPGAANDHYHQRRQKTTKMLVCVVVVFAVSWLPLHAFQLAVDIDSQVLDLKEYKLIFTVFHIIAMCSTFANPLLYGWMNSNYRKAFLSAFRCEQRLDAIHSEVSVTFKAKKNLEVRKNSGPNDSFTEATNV
Summary of the method: (§1)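 HEK-293 cells co-expressing GLP-1 or NPY2 receptor and CHO cells expressing GIP receptor, each carrying a CRE-driven luciferase reporter, were stimulated with peptides for 4 hours at 37 °C. Luminescence was read after Bright-Glo addition. EC50 came from 8-point, four-decade curves fitted by variable-slope non-linear regression.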

hGIPR = target: T2, hGIPR (Homo sapiens, UniProt P48546); experiment: hGIPR CreLuc reporter gene assay in 0.5% and 100% plasma
T2 construct: expressed in transfected cells; host or cells: CHO cells carrying a CRE-luciferase reporter gene
T2 sequence (P48546 22-466): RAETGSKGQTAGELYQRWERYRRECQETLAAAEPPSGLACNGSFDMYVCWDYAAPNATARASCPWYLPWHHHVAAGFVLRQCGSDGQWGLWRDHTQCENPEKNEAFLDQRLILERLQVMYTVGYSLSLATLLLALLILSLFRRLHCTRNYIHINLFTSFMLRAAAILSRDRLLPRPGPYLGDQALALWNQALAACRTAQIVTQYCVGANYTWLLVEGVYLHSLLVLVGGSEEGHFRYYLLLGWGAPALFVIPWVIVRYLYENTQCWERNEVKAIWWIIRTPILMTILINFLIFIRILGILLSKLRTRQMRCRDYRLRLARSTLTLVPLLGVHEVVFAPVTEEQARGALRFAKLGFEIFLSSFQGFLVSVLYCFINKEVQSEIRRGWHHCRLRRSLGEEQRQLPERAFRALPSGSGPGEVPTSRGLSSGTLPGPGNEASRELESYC
Summary of the method: as §1

hGLP1R = target: T3, hGLP1R (Homo sapiens, UniProt P43220); experiment: hGLP1R CreLuc reporter gene assay in 0.5% and 100% plasma
T3 construct: expressed in transfected cells; host or cells: HEK-293 cells carrying a CRE-luciferase reporter gene
T3 sequence (P43220 24-463): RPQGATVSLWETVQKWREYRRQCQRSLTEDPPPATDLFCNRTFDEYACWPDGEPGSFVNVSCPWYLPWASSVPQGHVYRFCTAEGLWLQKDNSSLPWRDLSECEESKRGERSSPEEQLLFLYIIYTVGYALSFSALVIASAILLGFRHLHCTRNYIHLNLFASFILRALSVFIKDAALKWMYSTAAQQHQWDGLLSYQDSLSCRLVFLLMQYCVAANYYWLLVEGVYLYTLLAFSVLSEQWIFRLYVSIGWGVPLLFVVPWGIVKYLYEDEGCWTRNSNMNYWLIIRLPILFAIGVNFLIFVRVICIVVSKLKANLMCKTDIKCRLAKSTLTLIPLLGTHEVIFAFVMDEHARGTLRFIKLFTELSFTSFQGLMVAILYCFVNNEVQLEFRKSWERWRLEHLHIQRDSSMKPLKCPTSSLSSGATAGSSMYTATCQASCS
Summary of the method: as §1

[1] = 100% human plasma, read-out: hNPY2R 100% hP
[2] = 0.5% human plasma, read-out: hGIPR 0.5% hP
[3] = 100% human plasma, read-out: hGIPR 100% hP
[4] = 0.5% human plasma, read-out: hGLP1R 0.5% hP
[5] = 100% human plasma, read-out: hGLP1R 100% hP
[6] = 0.5% human plasma, read-out: hNPY2R 0.5% hP

## H-Y[Aib]EGTFTSDYSI[Aib]LEKQAQ[Aib]AFVEWLIK([εLys-γGlu-γGlu-γGlu-γGlu-γGlu-γGlu-C20 diacid])GGPSSGQS[Aib]RHYYNWLTRQRY-NH2 [Compound 44, Y-Aib-E-G-T-F-T-S-D-Y-S-I-Aib-L-E-K-Q-A-Q-Aib-A-F-V-E-W-L-I-K(1,3)-G-G-P-S-S-G-Q-S-Aib-R-H-Y-Y-N-W-L-T-R-Q-R-Y-NH2.C20DA-gGlu-gGlu-gGlu-gGlu-gGlu-gGlu-eLys(1,2)]
hNPY2R; [1]
  EC50: 24.5 nM
hGIPR; [2]
  EC50: 0.05 nM
hGIPR; [3]
  EC50: 1.14 nM
hGLP1R; [4]
  EC50: 0.07 nM
hGLP1R; [5]
  EC50: 2.12 nM

## H-Y[Aib]EGTFTSDYSI[Aib]LEKQAQ[Aib]EFVQWLIK([γGlu-γGlu-γGlu-γGlu-C20 diacid])GGPSEGASLRHYYNWLTRQRY-NH2 [Compound 194, Y-Aib-E-G-T-F-T-S-D-Y-S-I-Aib-L-E-K-Q-A-Q-Aib-E-F-V-Q-W-L-I-K(1,3)-GGPSEGASLRHYYNWLTRQRY-NH2.C20DA-gGlu-gGlu-gGlu-gGlu(1,2)]
hNPY2R; [6]
  EC50: 13.8 nM
hGIPR; [2]
  EC50: 0.2 nM
hGIPR; [3]
  EC50: 1.83 nM
hGLP1R; [4]
  EC50: 0.29 nM
hGLP1R; [5]
  EC50: 14.2 nM

## H-Y[Aib]EGTFTSDYSI[Aib]LEEQAQ[Aib]AFVEWLIK([εLys-γGlu-γGlu-γGlu-γGlu-C20 diacid])GGPSSGASLRHYYNWLTRQRY-NH2 [Compound 97, Y-Aib-E-G-T-F-T-S-D-Y-S-I-Aib-L-E-E-Q-A-Q-Aib-A-F-V-E-W-L-I-K(1,3)-GGPSSGASLRHYYNWLTRQRY-NH2.C20DA-gGlu-gGlu-gGlu-gGlu-eLys(1,2)]
hNPY2R; [6]
  EC50: 14.9 nM
hNPY2R; [1]
  EC50: 70.4 nM
hGIPR; [2]
  EC50: 0.14 nM
hGIPR; [3]
  EC50: 0.95 nM
hGLP1R; [4]
  EC50: 0.15 nM

## Y[Aib]EGTFTSDYSI[Aib]LEKQAE[Aib]AFVEWLIK([AEEA-AEEA-γGlu-γGlu-γGlu-γGlu-C18 diacid])GGPSSGASLRHYYNWLTRQRY-NH2 [Compound 150, Y-Aib-E-G-T-F-T-S-D-Y-S-I-Aib-L-E-K-Q-A-E-Aib-A-F-V-E-W-L-I-K(1,3)-GGPSSGASLRHYYNWLTRQRY-NH2.C18DA-gGlu-glu-Glu-Glu-OEG-OEG(1,2)]
hNPY2R; [6]
  EC50: 16.7 nM
hGIPR; [2]
  EC50: 0.27 nM
hGLP1R; [4]
  EC50: 0.31 nM

## I: H-Y[Aib]EGTFTSDYSI[Aib]LEKQAQ[Aib]AFVQWLIKGGPSEGASLRHYYNWLTRQRY-NH2 / II: {C18 diacid}-EEEEEE (amide I:28-II:C) [Compound 264, Y-Aib-E-G-T-F-T-S-D-Y-S-I-Aib-L-E-K-Q-A-Q-Aib-A-F-V-Q-W-L-I-K(1,3)-GGPSEGASLRHYYNWLTRQRY-NH2.C18DA-E-E-E-E-E-E(1,2)]
hNPY2R; [6]
  EC50: 16.7 nM
hGIPR; [2]
  EC50: 0.28 nM
hGIPR; [3]
  EC50: 1.82 nM
hGLP1R; [4]
  EC50: 0.11 nM
hGLP1R; [5]
  EC50: 3.95 nM

## H-Y[Aib]EGTFTSDYSI[Aib]LEKQAQ[Aib]AFVEWLIK([AEEA-AEEA-γGlu-γGlu-γGlu-γGlu-C20 diacid])GGPSEPASLRHYYNWLTRQRY-NH2 [Compound 226, Y-Aib-E-G-T-F-T-S-D-Y-S-I-Aib-L-E-K-Q-A-Q-Aib-A-F-V-E-W-L-I-K(1,3)-GGPSEPASLRHYYNWLTRQRY-NH2.C20DA-gGlu-gGlu-gGlu-gGlu-OEG-OEG(1,2)]
hNPY2R; [1]
  EC50: 46.3 nM
hGIPR; [2]
  EC50: 0.43 nM
hGLP1R; [4]
  EC50: 0.24 nM

## H-Y[Aib]EGTFTSDYSI[Aib]LEKQAQ[Aib]AFVEWLIK([εLys-γGlu-γGlu-γGlu-γGlu-γGlu-γGlu-C20 diacid])GGPSYGASLRHYYNWLTRQRY-NH2 [Compound 232, Y-Aib-E-G-T-F-T-S-D-Y-S-I-Aib-L-E-K-Q-A-Q-Aib-A-F-V-E-W-L-I-K(1,3)-GGPSYGASLRHYYNWLTRQRY-NH2.C20DA-gGlu-gGlu-gGlu-gGlu-gGlu-gGlu-eLys(1,2)]
hNPY2R; [6]
  EC50: 15.3 nM
hNPY2R; [1]
  EC50: 36.8 nM
hGIPR; [2]
  EC50: 0.19 nM
hGIPR; [3]
  EC50: 1.64 nM
hGLP1R; [4]
  EC50: 0.21 nM

## CC[C@H](C)[C@H](NC(=O)[C@H](CC(C)C)NC(=O)[C@H](Cc1c[nH]c2ccccc12)NC(=O)[C@H](CCC(=O)O)NC(=O)[C@@H](NC(=O)[C@H](Cc1ccccc1)NC(=O)[C@H](C)NC(=O)C(C)(C)NC(=O)[C@H](CCC(N)=O)NC(=O)[C@H](C)NC(=O)[C@H](CCC(N)=O)NC(=O)[C@H](CCCCN)NC(=O)[C@H](CCC(=O)O)NC(=O)[C@H](CC(C)C)NC(=O)C(C)(C)NC(=O)[C@@H](NC(=O)[C@H](CO)NC(=O)[C@H](Cc1ccc(O)cc1)NC(=O)[C@H](CC(=O)O)NC(=O)[C@H](CO)NC(=O)[C@@H](NC(=O)[C@H](Cc1ccccc1)NC(=O)[C@@H](NC(=O)CNC(=O)[C@H](CCC(=O)O)NC(=O)C(C)(C)NC(=O)[C@@H](N)Cc1ccc(O)cc1)[C@@H](C)O)[C@@H](C)O)[C@@H](C)CC)C(C)C)C(=O)N[C@@H](CCCCNC(=O)[C@@H](N)CCCCNC(=O)CC[C@H](NC(=O)CC[C@H](NC(=O)CC[C@H](NC(=O)CC[C@H](NC(=O)CC[C@H](NC(=O)CC[C@H](NC(=O)CCCCCCCCCCCCCCCCCCC(=O)O)C(=O)O)C(=O)O)C(=O)O)C(=O)O)C(=O)O)C(=O)O)C(=O)NCC(=O)NCC(=O)N1CCC[C@H]1C(=O)N[C@@H](CO)C(=O)N[C@@H](CO)C(=O)NCC(=O)N[C@@H](C)C(=O)N[C@@H](CO)C(=O)N[C@@H](CC(C)C)C(=O)N[C@@H](CCCNC(=N)N)C(=O)N[C@@H](Cc1c[nH]cn1)C(=O)N[C@@H](Cc1ccc(O)cc1)C(=O)N[C@@H](CC(C)C)C(=O)N[C@@H](CC(N)=O)C(=O)N[C@@H](Cc1c[nH]c2ccccc12)C(=O)N[C@@H](CC(C)C)C(=O)N[C@H](C(=O)N[C@@H](CCCNC(=N)N)C(=O)N[C@@H](CCC(N)=O)C(=O)N[C@@H](CCCNC(=N)N)C(=O)N[C@@H](Cc1ccc(O)cc1)C(N)=O)[C@@H](C)O [Compound 86, Y-Aib-E-G-T-F-T-S-D-Y-S-I-Aib-L-E-K-Q-A-Q-Aib-A-F-V-E-W-L-I-K(1,3)-GGPSSGASLRHYLNWLTRQRY-NH2.C20DA-gGlu-gGlu-gGlu-gGlu-gGlu-gGlu-eLys(1,2)]
hNPY2R; [1]
  EC50: 53.1 nM
hGIPR; [2]
  EC50: 0.48 nM
hGIPR; [3]
  EC50: 1.61 nM
hGLP1R; [4]
  EC50: 0.25 nM

## H-Y[Aib]EGTFTSDYSI[Aib]LEKQAQ[Aib]AFVEWLIK([εLys-γGlu-γGlu-γGlu-γGlu-γGlu-γGlu-C20 diacid])GGPSSGLSLRHYYNWLTRQRY-NH2 [Compound 107, Y-Aib-E-G-T-F-T-S-D-Y-S-I-Aib-L-E-K-Q-A-Q-Aib-A-F-V-E-W-L-I-K(1,3)-GGPSSGLSLRHYYNWLTRQRY-NH2.C20DA-gGlu-gGlu-gGlu-gGlu-gGlu-gGlu-eLys(1,2)]
hNPY2R; [6]
  EC50: 16.7 nM
hNPY2R; [1]
  EC50: 58.5 nM
hGIPR; [2]
  EC50: 0.27 nM
hGLP1R; [4]
  EC50: 0.13 nM

## H-Y[Aib]EGTFTSDYSI[Aib]LEKQAQ[Aib]AFVQWLIK([γGlu-γGlu-γGlu-γGlu-γGlu-C18 diacid])GGPSEGASLRHYYNWLTRQRY-NH2 [Compound 250, Y-Aib-E-G-T-F-T-S-D-Y-S-I-Aib-L-E-K-Q-A-Q-Aib-A-F-V-Q-W-L-I-K(1,3)-GGPSEGASLRHYYNWLTRQRY-NH2.C18DA-gGlu-gGlu-gGlu-gGlu-gGlu(1,2)]
hNPY2R; [6]
  EC50: 12.2 nM
hGIPR; [2]
  EC50: 0.2 nM
hGIPR; [3]
  EC50: 1.25 nM
hGLP1R; [4]
  EC50: 0.08 nM

## H-Y[Aib]EGTFTSDYSI[Aib]LEKQAE[Aib]AFVQWLIK([εLys-γGlu-γGlu-γGlu-γGlu-C18 diacid])GGPSEPASLRHYYNWLTRQRY-NH2 [Compound 54, Y-Aib-E-G-T-F-T-S-D-Y-S-I-Aib-L-E-K-Q-A-E-Aib-A-F-V-Q-W-L-I-K(1,3)-GGPSEPASLRHYYNWLTRQRY-NH2.C18DA-gGlu-gGlu-gGlu-gGlu-eLys(1,2)]
hNPY2R; [6]
  EC50: 14 nM
hGIPR; [2]
  EC50: 0.24 nM
hGLP1R; [4]
  EC50: 0.22 nM
hGLP1R; [5]
  EC50: 7.71 nM
